Results reported in US20250002473A1, “QUINOXALINE DERIVED SULFONAMIDES WITH EGFR DEGRADATION ACTIVITIES AND THEIR USES THEREOF” (Accutar Biotechnology Inc., priority 2023, published 2025).
Like-named read-outs stand apart in the source and are kept apart here.

Legend:
Assay type in all cases: cell-based
[1] = system: BaF3_ASV; test: Cell growth inhibition assay (CellTiter-Glo), BaF3_ASV; conditions: 72 h; Table 6; BaF3_ASV cells, three days, CellTiter-Glo; read-out: BaF3_ASV GI50
[2] = system: HCC827_LTC; test: Cell growth inhibition assay (CellTiter-Glo), HCC827_LTC; conditions: 72 h; Table 8; HCC827 expressing human EGFR L858R/T790M/C797S, endogenous EGFR knockout, three days
Method: (§1) HCC827_LTC and HCC827_DTC cell lines were generated by first transducing HCC827 cells (ATCC) with lentiviral particles expressing codon-optimized human EGFR L858R/T790M/C797S (LTC) mutant or Del19/T790M/C797S (DTC) mutant, and then selecting under 5 μg/ml puromycin treatment for a week. The endogenous EGFR alleles were subsequently abolished using the Alt-R™ CRISPR-Cas9 technology (Integrated DNA Technologies). Single clones of HCC827_LTC and HCC827_DTC were selected and validated for endogenous EGFR knockout using Sanger sequencing.
(§2) Cells were seeded in a 96-well plate (Corning 3610) with 90 μL of culture medium per well, and plates were incubated at 37° C. overnight. A 1,000× DMSO stock solution of the desired compound was prepared the following day. A compound dilution plate was prepared by diluting the stock solution 1:100 in the corresponding cell culture medium, 10 μL of the diluted compound solution was added to each 96-well plate well containing the seeded cells. Then, the cells were cultured at 37° C. for three days following compound treatment, 100 μL of CellTiter-Glo reagents (Promega G7573) was added to each well of the 96-well plate. The content of the wells was mixed by shaking continuously for 10 min, and luminescence was measured using Envision (PerkinElmer). The data were analyzed with GraphPad Prism 9 (see FIG. 50).
(§3) Table 6, Table 7, and Table 8 list the cell growth inhibition results, where Gls0 represents the compound concentration to cause 50% cell growth inhibition in comparison with DMSO.

[3] = system: BaF3_DTC; test: Cell growth inhibition assay (CellTiter-Glo), BaF3_DTC; conditions: 72 h; Table 6; BaF3_DTC cells, three days, CellTiter-Glo; read-out: BaF3_DTC GI50
[4] = system: HCC827_DTC; test: Cell growth inhibition assay (CellTiter-Glo), HCC827_DTC; conditions: 72 h; Table 8; HCC827 expressing human EGFR Del19/T790M/C797S, endogenous EGFR knockout, three days
Method: as §1, §2, §3

[5] = target: T1, BaF3_ASV (EGFR_A776inASV) (Homo sapiens, UniProt P00533, DUP767-769); test: EGFR degradation assay (western blot), BaF3_ASV cells; conditions: BaF3_ASV cells, compounds 24 h, western blot; read-out: BaF3_ASV DC50
T1 construct: expressed in transfected cells; host or cells: Ba/F3 (engineered)
T1 sequence (P00533 with tags, fused parts or gaps DUP767-769): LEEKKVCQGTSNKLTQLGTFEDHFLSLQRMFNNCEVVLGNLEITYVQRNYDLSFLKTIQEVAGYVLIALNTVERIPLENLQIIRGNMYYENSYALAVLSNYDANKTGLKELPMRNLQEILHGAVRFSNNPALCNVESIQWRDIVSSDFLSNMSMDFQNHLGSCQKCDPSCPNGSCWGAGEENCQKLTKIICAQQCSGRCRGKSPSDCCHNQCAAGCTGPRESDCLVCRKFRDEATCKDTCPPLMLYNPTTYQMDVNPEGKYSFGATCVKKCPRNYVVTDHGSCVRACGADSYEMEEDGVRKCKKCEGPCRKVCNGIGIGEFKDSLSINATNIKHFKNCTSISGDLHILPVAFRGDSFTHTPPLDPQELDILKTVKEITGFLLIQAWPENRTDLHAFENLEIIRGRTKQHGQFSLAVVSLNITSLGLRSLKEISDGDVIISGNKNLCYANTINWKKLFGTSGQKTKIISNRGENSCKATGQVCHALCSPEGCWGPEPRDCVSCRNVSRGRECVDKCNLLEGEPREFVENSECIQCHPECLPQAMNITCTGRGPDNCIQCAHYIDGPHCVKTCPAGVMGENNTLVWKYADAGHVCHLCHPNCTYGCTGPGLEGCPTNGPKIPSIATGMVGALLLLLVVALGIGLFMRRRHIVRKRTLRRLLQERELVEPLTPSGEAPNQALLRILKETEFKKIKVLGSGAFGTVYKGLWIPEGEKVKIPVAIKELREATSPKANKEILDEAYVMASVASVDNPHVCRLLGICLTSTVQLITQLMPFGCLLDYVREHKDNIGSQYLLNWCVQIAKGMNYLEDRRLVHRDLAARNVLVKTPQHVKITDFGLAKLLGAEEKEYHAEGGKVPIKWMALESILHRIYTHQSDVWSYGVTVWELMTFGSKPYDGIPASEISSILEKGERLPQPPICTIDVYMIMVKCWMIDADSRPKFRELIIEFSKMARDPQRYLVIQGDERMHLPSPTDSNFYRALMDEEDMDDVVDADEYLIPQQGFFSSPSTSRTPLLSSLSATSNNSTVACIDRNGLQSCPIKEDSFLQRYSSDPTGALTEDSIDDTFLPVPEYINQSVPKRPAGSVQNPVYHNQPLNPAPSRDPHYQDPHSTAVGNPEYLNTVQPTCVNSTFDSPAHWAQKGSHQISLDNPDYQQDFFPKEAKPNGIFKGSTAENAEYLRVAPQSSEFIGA
How it was run: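 Cells seeded overnight, then exposed to compounds for 24 h; lysates run on western blot, EGFR probed with tubulin loading control and fluorescent secondary detection. DC50 = concentration giving 50% EGFR degradation.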

[6] = system: HCC827; test: Cell growth inhibition assay (CellTiter-Glo), HCC827; conditions: Homo sapiens, 72 h, Table 8, HCC827 cells, three days
Method: as §1, §2, §3

[7] = system: NCI-H2073; test: Cell growth inhibition assay (CellTiter-Glo), NCI-H2073; conditions: 72 h; Table 8; NCI-H2073 cells, three days
Method: as §2, with “Then, the cells were cultured at 37° C. for three days following compound treatment, 100 μL of CellTiter-Glo reagents (Promega G7573) was added to each well of the 96-well plate.” left out
as §3

[8] = system: A431; test: Cell growth inhibition assay (CellTiter-Glo), A431; conditions: Homo sapiens, A-431, 72 h, A431 cells, three days, read-out: A431 GI50
How it was run: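 Cells were plated in 96-well plates (Corning 3610) at 90 μL of culture medium per well and incubated overnight at 37° C. The next day, a 1,000× DMSO compound stock was diluted 1:100 in cell culture medium, and 10 μL was added per well. After shaking for 10 min, luminescence was read on an Envision (PerkinElmer) reader.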

Row | GI50 [2] [nM] | GI50 [4] [nM] | GI50 [6] [nM] | GI50 [7] [nM] | GI50 ([8]; Table 8) [nM] | Compound | GI50 [1] [nM] | GI50 [3] [nM] | DC50 [5] [nM] | GI50 ([8]; Table 6, CellTiter-Glo) [nM]
1 | 0.45 | 1.53 | 0.96 | 134 | 160 | COc1cc(N2CCC(N3CCN(CCc4cc(F)c(C5CCC(=O)NC5=O)c(F)c4)CC3)CC2)c(-c2cnn(C)c2)cc1Nc1ncc(Br)c(Nc2ccc3nccnc3c2NS(C)(=O)=O)n1 (centres unmarked) [Compound 70, N-(6-((5-bromo-2-((4-(4-(4-(4-(2,6-dioxopiperidin-3-yl)-3,5-difluorophenethyl)piperazin-1-yl)piperidin-1-yl)-2-methoxy-5-(1-methyl-1H-pyrazol-4-yl)phenyl)amino)pyrimidin-4-yl)amino)quinoxalin-5-yl)methanesulfonamide] | – | – | – | –
2 | 0.77 | 2.6 | 0.22 | 654 | 164 | COc1cc(N2CCN(C(=O)CN3CCC(c4ccc(NC5CCC(=O)NC5=O)cc4)CC3)CC2)c(-c2cnn(C)c2)cc1Nc1ncc(Br)c(Nc2ccc3nccnc3c2NS(C)(=O)=O)n1 (centres unmarked) [Compound 79, N-(6-((5-bromo-2-((4-(4-(2-(4-(4-((2,6-dioxopiperidin-3-yl)amino)phenyl)piperidin-1-yl)acetyl)piperazin-1-yl)-2-methoxy-5-(1-methyl-1H-pyrazol-4-yl)phenyl)amino)pyrimidin-4-yl)amino)quinoxalin-5-yl)methanesulfonamide] | – | – | – | –
3 | 1.81 | 1.96 | 1 | 403 | 436 | COc1cc(N2CCC(N3CCN(CCc4ccc(NC5CCC(=O)NC5=O)cc4)CC3)CC2)c(-c2cnn(C)c2)cc1Nc1ncc(Br)c(Nc2ccc3nccnc3c2NS(C)(=O)=O)n1 (centres unmarked) [Compound 78, N-(6-((5-bromo-2-((4-(4-(4-(4-((2,6-dioxopiperidin-3-yl)amino)phenethyl)piperazin-1-yl)piperidin-1-yl)-2-methoxy-5-(1-methyl-1H-pyrazol-4-yl)phenyl)amino)pyrimidin-4-yl)amino)quinoxalin-5-yl)methanesulfonamide] | – | – | – | –
4 | 2.03 | 4.21 | 2.41 | > 3000 | 746 | COc1cc(N2CCC(N3CC4(CN(C(=O)CC5(O)CCN(c6ccc(NC7CCC(=O)NC7=O)cc6F)CC5)C4)C3)CC2)c(-c2cnn(C)c2)cc1Nc1ncc(Br)c(Nc2ccc3nccnc3c2NS(C)(=O)=O)n1 (centres unmarked) [Compound 81, N-(6-((5-bromo-2-((4-(4-(6-(2-(1-(4-((2,6-dioxopiperidin-3-yl)amino)-2-fluorophenyl)-4-hydroxypiperidin-4-yl)acetyl)-2,6-diazaspiro[3.3]heptan-2-yl)piperidin-1-yl)-2-methoxy-5-(1-methyl-1H-pyrazol-4-yl)phenyl)amino)pyrimidin-4-yl)amino)quinoxalin-5-yl)methanesulfonamide] | – | – | – | –

Row | Compound | GI50 [2] [nM] | GI50 [4] [nM] | GI50 [6] [nM] | GI50 [7] [nM] | GI50 ([8]; Table 8) [nM] | GI50 [1] [nM] | GI50 [3] [nM] | DC50 [5] [nM] | GI50 ([8]; Table 6, CellTiter-Glo) [nM]
5 | CCn1c(=O)n(C2CCC(=O)NC2=O)c2cccc(CCN3CCN(C4CCN(c5cc(OC)c(Nc6ncc(Br)c(Nc7ccc8nccnc8c7NS(C)(=O)=O)n6)cc5-c5cnn(C)c5)CC4)CC3)c21 (centres unmarked) [Compound 28, N-(6-((5-bromo-2-((4-(4-(4-(2-(1-(2,6-dioxopiperidin-3-yl)-3-ethyl-2-oxo-2,3-dihydro-1H-benzo[d]imidazol-4-yl)ethyl)piperazin-1-yl)piperidin-1-yl)-2-methoxy-5-(1-methyl-1H-pyrazol-4-yl)phenyl)amino)pyrimidin-4-yl)amino)quinoxalin-5-yl)methanesulfonamide] | 1.03 | 4.42 | 0.52 | 340 | 150 | 56.3 | 15.8 | 93.6 | 271
